The text below walks through data of ChEMBL document CHEMBL4339198, “Use of a Conformational-Switching Mechanism to Modulate Exposed Polarity: Discovery of CCR2 Antagonist BMS-741672” (ACS Med Chem Lett, 2019).

The source made the active and inactive calls. No cut-off for these calls is given here.

Data set [1] concerns the target C-C chemokine receptor type 2 (Homo sapiens, UniProt P41597).
Description: Displacement of [125I]MCP1 from CCR2 in human PBMC measured after 30 mins
A short description of data set [2]: Drug metabolism in human liver microsomes assessed as rate of disappearance at 3 uM. It counts as ADME, Microsome.
The target in data set [3] is T1, hERG (KCNH2) (Homo sapiens, UniProt Q12809). The experiment in a line: in vitro.
T1 sequence (Q12809 whole entry): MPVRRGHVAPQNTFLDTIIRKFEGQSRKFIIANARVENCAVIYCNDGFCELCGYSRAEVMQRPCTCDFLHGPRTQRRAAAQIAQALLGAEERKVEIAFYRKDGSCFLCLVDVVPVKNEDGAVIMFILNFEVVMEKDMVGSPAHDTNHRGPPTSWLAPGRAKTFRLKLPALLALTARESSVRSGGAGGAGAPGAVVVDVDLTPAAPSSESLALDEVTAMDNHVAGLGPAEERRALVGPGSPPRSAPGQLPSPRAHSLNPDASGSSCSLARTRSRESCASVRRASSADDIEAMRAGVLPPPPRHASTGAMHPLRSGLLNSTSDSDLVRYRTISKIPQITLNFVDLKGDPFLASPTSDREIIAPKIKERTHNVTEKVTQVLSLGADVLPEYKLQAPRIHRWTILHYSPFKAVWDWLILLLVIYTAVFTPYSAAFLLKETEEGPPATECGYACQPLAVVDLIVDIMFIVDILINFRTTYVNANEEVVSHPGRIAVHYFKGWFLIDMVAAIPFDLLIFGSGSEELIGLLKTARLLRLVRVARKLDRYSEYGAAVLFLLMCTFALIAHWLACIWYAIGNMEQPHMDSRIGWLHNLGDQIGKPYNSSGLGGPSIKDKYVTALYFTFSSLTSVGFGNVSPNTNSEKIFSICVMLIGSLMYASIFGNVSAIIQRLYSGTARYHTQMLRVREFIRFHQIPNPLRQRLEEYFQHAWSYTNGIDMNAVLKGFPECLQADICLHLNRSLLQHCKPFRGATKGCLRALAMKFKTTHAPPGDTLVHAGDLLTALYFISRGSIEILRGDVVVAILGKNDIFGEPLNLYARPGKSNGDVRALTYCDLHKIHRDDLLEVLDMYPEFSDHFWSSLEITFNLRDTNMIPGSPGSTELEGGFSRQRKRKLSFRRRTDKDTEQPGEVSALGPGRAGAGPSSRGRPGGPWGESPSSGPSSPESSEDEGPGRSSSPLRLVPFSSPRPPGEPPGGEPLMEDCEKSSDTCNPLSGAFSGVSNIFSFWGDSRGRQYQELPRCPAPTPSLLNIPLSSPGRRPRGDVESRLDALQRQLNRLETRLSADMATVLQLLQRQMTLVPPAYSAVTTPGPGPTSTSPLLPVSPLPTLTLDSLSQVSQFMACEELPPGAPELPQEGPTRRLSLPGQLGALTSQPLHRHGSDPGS
Description: Inhibition of human ERG at 10 uM by manual patch-clamp assay relative to control
Data set [4] in a line: Permeability of the compound at pH 7.4 by PAMPA. It counts as ADME. As to conditions: read-out: permeability. In general terms: In PAMPA a lipid-coated filter parts donor from acceptor wells.
Data set [5] can be described thus: Oral bioavailability in mouse. It counts as ADME, organism-based. As to conditions: in vivo.
Data set [6] has as its target T2, C-C chemokine receptor type 5 (Homo sapiens, UniProt P51681).
Description: Antagonist activity at CCR5 (unknown origin) expressed in human HT1080 cells assessed as blockade of MIP1beta-binding to receptor
Data set [7] is described as follows: Stability in human liver microsomes assessed as parent compound remaining at 3 uM measured after 10 mins. It counts as ADME, Microsome. To be noted: read-out: Stability. Background: Liver microsomes are a subcellular fraction often used to study metabolism.
Data set [8] is described as follows: Clearance in iv dosed mouse. It counts as ADME, organism-based. As to conditions: in vivo.
The target in data set [9] is T2, C-C chemokine receptor type 5. The experiment in a line: Binding affinity to CCR5 in T-cell (unknown origin).
The nature of data set [10]: Oral bioavailability in cynomolgus monkey. To be noted: in vivo.
For a further data set, the system named is Cynomolgus monkey. The experiment in a line: In vivo antagonist activity at CCR2 in po dosed cynomolgus monkey assessed as inhibition of MCP1-induced chemotaxis administered once daily for three days followed by MCP1 stimulation and measured after 18 hrs. It counts as functional, organism-based. To be noted: Macaca fascicularis.
The nature of data set [11]: Toxicity in rat administered as single dose. As to conditions: in vivo.
Data set [12] can be described thus: Cardiotoxicity in telemetered monkey assessed as changes in QTc interval at 30 mg/kg. It counts as toxicity, organism-based, Macaca mulatta. As to conditions: rhesus monkey, in vivo.
Data set [13] is described as follows: Half life in iv dosed rat. As to conditions: in vivo.
A short description of data set [14]: Toxicity in monkey administered as single dose. The arrangement: species or system Macaca mulatta. To be noted: rhesus monkey, in vivo.
For the next data set, the system named is Mus musculus. The data set is described as follows: Protection against C57BL/6-SVJ12 mouse model of thioglycollate-induced peritonitis administered orally 1 hr prior to thioglycollate-stimulation for 48 hrs and subsequent bid dosing for 3 days following 1 hr thioglycollate-stimulation measured by Wright-Giemsa Staining based flow cytometry. It counts as functional, organism-based. (A flow cytometer gives signals particle by particle.)

Data set [15] is described as follows: Toxicity in rat measured after 14 days. To be noted: in vivo, 336 h.
Data set [16] is described as follows: Half life in iv dosed cynomolgus monkey. To be noted: in vivo.
Data set [17] deals with T1, hERG (KCNH2). The data set is described as follows: Inhibition of human ERG at 30 uM by manual patch-clamp assay relative to control.

C-C chemokine receptor type 2, sequence (P41597 whole entry): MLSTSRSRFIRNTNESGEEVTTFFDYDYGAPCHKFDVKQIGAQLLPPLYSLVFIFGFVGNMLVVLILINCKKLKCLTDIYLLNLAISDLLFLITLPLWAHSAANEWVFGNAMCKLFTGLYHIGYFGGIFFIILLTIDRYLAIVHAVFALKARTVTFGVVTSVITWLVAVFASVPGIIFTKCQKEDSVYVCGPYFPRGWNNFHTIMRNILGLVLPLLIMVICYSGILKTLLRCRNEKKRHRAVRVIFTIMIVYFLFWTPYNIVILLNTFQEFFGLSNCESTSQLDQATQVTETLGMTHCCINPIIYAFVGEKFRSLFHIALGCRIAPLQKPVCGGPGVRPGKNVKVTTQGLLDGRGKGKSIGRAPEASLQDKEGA
T2 sequence (P51681 whole entry): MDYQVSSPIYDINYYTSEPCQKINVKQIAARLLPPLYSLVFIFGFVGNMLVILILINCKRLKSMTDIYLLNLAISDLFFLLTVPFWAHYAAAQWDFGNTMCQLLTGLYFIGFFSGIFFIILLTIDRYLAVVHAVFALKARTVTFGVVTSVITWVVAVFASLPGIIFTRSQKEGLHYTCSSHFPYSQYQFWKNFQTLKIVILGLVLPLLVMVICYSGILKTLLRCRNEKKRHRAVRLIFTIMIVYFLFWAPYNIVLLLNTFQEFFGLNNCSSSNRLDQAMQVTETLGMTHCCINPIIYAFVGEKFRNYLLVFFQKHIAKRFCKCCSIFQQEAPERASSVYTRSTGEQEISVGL

For `CC(C)N(C)[C@@H]1CC[C@H](N2CC[C@H](NC(=O)c3cccc(C(F)(F)F)c3)C2=O)[C@H](N(C)S(C)(=O)=O)C1`, the results for the IC50 in data set [1] and in [6] were 1.4 nM and 1570 nM, respectively. The Drug metabolism in [2] was found to be 0 nmol/min. For the same compound, at 10 µM the inhibition at hERG (KCNH2) [3] was 7%. Also, the Papp in [4] turned out to be 6.5 ×10⁻⁶ cm/s. Moreover, the bioavailability in data set [5] was determined as 11%. Besides, in data set [7], the remaining at 10 min, 3 µM is 100%. The clearance in data set [8] was 67 mL/min/kg.
For `CC(C)N(C)[C@@H]1CC[C@H](N2CC[C@H](NC(=O)c3cccc(C(F)(F)F)c3)C2=O)[C@H](NS(C)(=O)=O)C1`, the IC50 in [1] stood at 1.9 nM; in data set [6], 3470 nM. For the same compound, in [2], the Drug metabolism was 0.05 nmol/min. In data set [4], the Papp was 59.3 ×10⁻⁶ cm/s. For the same compound, the bioavailability in data set [5] was 35%. In addition, the remaining at 10 min, 3 µM in data set [7] was 85%. The compound further registered a clearance in [8] of 258 mL/min/kg.
As to `CC(=O)N[C@@H]1C[C@H](N(C)C(C)C)CC[C@@H]1N1CC[C@H](Nc2ncnc3ccc(C(F)(F)F)cc23)C1=O`, the Kd in [9] was determined as 23.6 nM. The Drug metabolism in data set [2] came out at 0.01 nmol/min. The bioavailability in data set [10] amounted to 46%; in data set [5], 28%. The inhibition entry in the data set on Cynomolgus monkey is “Active”. Besides, the Activity entry in data set [11], in [12], in [14] and in [15] was “Non-Toxic” in each case. At hERG (KCNH2) [3], this compound yielded an inhibition at 10 µM of 33%. The same compound registered an IC50 in data set [6] of 780 nM. Besides, the remaining at 10 min, 3 µM in data set [7] came out at 95%. In addition, the half-life is 5.1 h in [13] and 3.2 h in data set [16]. In data set [8], this compound came in with a clearance of 38 mL/min/kg. In the data set with Mus musculus, the outcome was Active.
Regarding `CC(C)N(C)[C@@H]1CC[C@H](N2CC[C@H](NC(=O)c3cccc(C(F)(F)F)c3)C2=O)[C@H](CS(C)(=O)=O)C1`, in data set [2], the Drug metabolism worked out at 0 nmol/min. In data set [4], the Papp is 9.4 ×10⁻⁶ cm/s. In data set [6], this compound yielded an IC50 of 1640 nM. The remaining at 10 min, 3 µM in data set [7] is 100%. The clearance in [8] came out at 70 mL/min/kg.
Turning to `CC(C)N(C)[C@@H]1CC[C@H](N2CC[C@H](Nc3ncnc4ccc(C(F)(F)F)cc34)C2=O)[C@H](NS(C)(=O)=O)C1` [BMS-741672], the results for the IC50 in data set [1] and in [6] were 0.4 nM and 287 nM, respectively. Also, the Drug metabolism in [2] worked out at 0.13 nmol/min. In addition, the inhibition at 10 µM against hERG (KCNH2) [3] was determined as 74%. Besides, in data set [4], the Papp came to 39.4 ×10⁻⁶ cm/s. Also, the remaining at 10 min, 3 µM in [7] was found to be 58%.
Regarding `CCC[C@@H]1C[C@H](N(C)C(C)C)CC[C@@H]1N1CC[C@H](Nc2ncnc3ccc(C(F)(F)F)cc23)C1=O`, the Drug metabolism in data set [2] turned out to be 0 nmol/min. In addition, the Papp in data set [4] is 52.9 ×10⁻⁶ cm/s. In [7], the remaining at 10 min, 3 µM turned out to be 100%.
For `CC(C)N(C)[C@@H]1CC[C@H](N2CC[C@H](Nc3ncnc4ccc(C(F)(F)F)cc34)C2=O)[C@H](CS(C)(=O)=O)C1`, the 50% inhibitory concentration (IC50) in data set [1] was determined as 0.9 nM; in [6] it was 190 nM. Besides, in data set [2], the Drug metabolism worked out at 0 nmol/min. For the same compound, the Papp in data set [4] is 1.4 ×10⁻⁶ cm/s. Further, the remaining at 10 min, 3 µM in data set [7] worked out at 99%. Testing at 30 µM against hERG (KCNH2) [17] gave an inhibition of 16%.

A word on the IC50: it is the concentration that inhibits the measured activity by half. In general, inhibition refers to how much of the control response was suppressed. As a reminder, the bioavailability is dose-corrected exposure relative to a reference, in per cent. In general, clearance refers to the rate of elimination divided by the concentration. As usually defined, the Kd is the free concentration of one partner at which half of the binding sites on the other are occupied at equilibrium, for simple one-to-one binding. The term half-life denotes the time in which the quantity being followed falls by half.
